In publication PMC8213057, “Targeting ALK2: An Open Science Approach to Developing Therapeutics for the Treatment of Diffuse Intrinsic Pontine Glioma” (Journal of Medicinal Chemistry, 2020):
“And” between values parts separate entries of the source, which are not always exact repeats. Identical values can stand only once.

Legend:
ALK2/ACVR1 = target: T1, ALK2/ACVR1 (Homo sapiens, UniProt Q04771); assay type: biochemical; details: for Fold Selectivity (ALK5/ALK2): biochemical ALK5 IC50 / ALK2 IC50; for fold decrease in inhibitory activity against ALK2: biochemical, relative to M4K2149
T1 construct: purchased Reaction Biology Corporation
T1 sequence (Q04771 21-509): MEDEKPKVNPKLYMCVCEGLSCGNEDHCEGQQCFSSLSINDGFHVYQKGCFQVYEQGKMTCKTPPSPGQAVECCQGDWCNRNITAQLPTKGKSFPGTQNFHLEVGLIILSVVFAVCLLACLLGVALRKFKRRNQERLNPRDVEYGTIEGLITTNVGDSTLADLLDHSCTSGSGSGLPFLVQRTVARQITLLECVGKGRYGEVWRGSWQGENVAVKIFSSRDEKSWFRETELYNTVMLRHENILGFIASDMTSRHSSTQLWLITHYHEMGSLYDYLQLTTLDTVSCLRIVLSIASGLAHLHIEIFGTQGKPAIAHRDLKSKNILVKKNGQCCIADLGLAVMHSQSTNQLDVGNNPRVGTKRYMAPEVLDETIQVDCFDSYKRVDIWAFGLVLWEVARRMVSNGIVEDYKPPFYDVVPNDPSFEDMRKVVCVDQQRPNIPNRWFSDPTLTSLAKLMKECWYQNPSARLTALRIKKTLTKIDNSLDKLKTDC

ALK2 = target: T2, ALK2 (Homo sapiens, UniProt Q04771); test: NanoBRET target engagement assay in HEK293 cells; assay type: cell-based; details: DLA ALK5 IC50 / NanoBRET ALK2 IC50
T2 construct: host or cells: HEK-293
T2 sequence (Q04771 21-509): T1 sequence (Q04771 21-509)

[1] = mouse liver microsomal stability assay; assay type: in vitro ADME; details: male, 60 min, 37 °C, read-out: MLM % Remaining at 1h
[2] = human liver microsomal stability assay; assay type: in vitro ADME; details: pH 7.4, human liver microsomes, 60 min, 37 °C, read-out: HLM % Remaining at 1h
in vivo = details: female, CB17 SCID, mouse, po, 10 mg/kg
Caco-2 cells [3] = test: Caco-2 permeability assay; details: 5 μM
[4] = Caco-2 permeability assay; details: human
in vitro = details: human, Caco-2, pH 7.4
hERG potassium channel = target: T3, hERG potassium channel (Homo sapiens, UniProt Q12809); test: hERG patch-clamp assay in HEK293 cells; details: HEK293 cell-based patch-clamp
T3 construct: host or cells: HEK293

Caco-2 cells [5] = test system: Caco-2 cells; set-up: method as in earlier work; details: unpublished results ref 21; cited from earlier work
[6] = CD-1, mouse, microsomes, pH 7.4, mouse liver microsomes
[7] = CD-1, pH 7.4, mouse liver microsomes

T3 sequence (Q12809 whole entry): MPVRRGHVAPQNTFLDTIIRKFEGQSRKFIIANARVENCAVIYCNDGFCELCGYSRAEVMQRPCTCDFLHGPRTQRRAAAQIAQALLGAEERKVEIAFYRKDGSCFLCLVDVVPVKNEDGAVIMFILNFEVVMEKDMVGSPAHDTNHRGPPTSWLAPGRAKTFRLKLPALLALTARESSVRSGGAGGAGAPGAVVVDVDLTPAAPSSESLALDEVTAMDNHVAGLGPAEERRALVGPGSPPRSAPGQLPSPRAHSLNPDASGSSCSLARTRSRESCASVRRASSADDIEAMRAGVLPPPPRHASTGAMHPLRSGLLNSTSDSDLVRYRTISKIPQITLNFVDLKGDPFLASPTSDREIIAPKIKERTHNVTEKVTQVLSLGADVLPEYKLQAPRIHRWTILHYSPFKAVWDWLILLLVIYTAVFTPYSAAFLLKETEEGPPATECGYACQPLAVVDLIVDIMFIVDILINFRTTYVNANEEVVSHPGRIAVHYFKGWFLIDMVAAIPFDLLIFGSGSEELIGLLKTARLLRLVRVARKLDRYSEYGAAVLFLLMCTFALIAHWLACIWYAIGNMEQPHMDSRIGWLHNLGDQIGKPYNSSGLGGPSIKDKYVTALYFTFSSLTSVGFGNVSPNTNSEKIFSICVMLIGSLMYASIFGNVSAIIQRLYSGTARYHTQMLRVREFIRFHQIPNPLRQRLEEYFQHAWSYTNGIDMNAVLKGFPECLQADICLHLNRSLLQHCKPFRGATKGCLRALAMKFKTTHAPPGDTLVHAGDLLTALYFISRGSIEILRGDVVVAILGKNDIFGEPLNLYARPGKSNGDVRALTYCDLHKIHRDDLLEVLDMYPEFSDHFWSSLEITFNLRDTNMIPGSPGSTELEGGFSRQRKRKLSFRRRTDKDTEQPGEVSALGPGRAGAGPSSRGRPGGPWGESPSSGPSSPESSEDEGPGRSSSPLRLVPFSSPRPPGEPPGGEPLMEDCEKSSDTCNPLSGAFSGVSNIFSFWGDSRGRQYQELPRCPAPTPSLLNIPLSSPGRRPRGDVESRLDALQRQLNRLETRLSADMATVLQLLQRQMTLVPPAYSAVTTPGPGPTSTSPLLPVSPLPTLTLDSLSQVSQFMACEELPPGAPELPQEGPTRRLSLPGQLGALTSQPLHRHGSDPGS

SMILES: CNC(=O)c1ccc(-c2cncc(-c3ccc(N4CCNCC4)cc3)c2C)cc1OC
- IC50 (ALK2 (WT)): > 1 µM
- IC50 (ALK5): > 5 µM
- IC50 (NanoBRET ALK2): > 5 µM
- IC50 (DLA ALK5): > 5 µM

SMILES: COc1c(C(N)=O)csc1-c1cncc(-c2ccc(N3CCNCC3)cc2)c1C
- IC50 (ALK2 (WT)): > 1 µM
- IC50 (ALK5): > 5 µM
- IC50 (NanoBRET ALK2): > 5 µM
- IC50 (DLA ALK5): > 5 µM

SMILES: COc1cc(-c2cncc(-c3ccc(N4CCNCC4)cc3)c2C)ccc1C(=O)N(C)C
- IC50 (ALK2 (WT)): > 1 µM
- IC50 (ALK5): > 5 µM
- IC50 (NanoBRET ALK2): > 5 µM
- IC50 (DLA ALK5): > 5 µM

SMILES: COc1cc(-c2cncc(-c3ccc(N4CCNCC4)cc3)c2C)sc1C(N)=O [Compound 7a, 3-Methoxy-5-(4-methyl-5-(4-(piperazin-1-yl)phenyl)pyridin-3-yl)thiophene-2-carboxamide]
- IC50 (ALK5): > 5 µM
- IC50 (DLA ALK5): > 5 µM
- Fold Selectivity (ALK5/ALK2) (ALK2/ACVR1): >6
- fold decrease in inhibitory activity against ALK2 (ALK2/ACVR1): greater than 40 fold
- Cell-based Fold Selectivity (ALK2): >1

SMILES: COc1c(-c2cncc(-c3ccc(N4CCNCC4)cc3)c2C)csc1C(N)=O [Compound 7b, 3-Methoxy-4-(4-methyl-5-(4-(piperazin-1-yl)phenyl)pyridin-3-yl)thiophene-2-carboxamide]
- IC50 (ALK5): > 5 µM
- IC50 (DLA ALK5): > 5 µM
- Fold Selectivity (ALK5/ALK2) (ALK2/ACVR1): >7
- fold decrease in inhibitory activity against ALK2 (ALK2/ACVR1): greater than 40 fold
- Cell-based Fold Selectivity (ALK2): >1

SMILES: COc1cc(-c2cncc(-c3ccc(N4CCNCC4)cc3)c2C)cc(F)c1C(N)=O [Compound 8b, 2-Fluoro-6-methoxy-4-(4-methyl-5-(4-(piperazin-1-yl)phenyl)pyridin-3-yl)benzamide]
- Fold Selectivity (ALK5/ALK2) (ALK2/ACVR1): 80
- remaining at 1 h, 1 μM [1, 6]: 98.4%
- remaining at 1 h, 1 μM ([2]; human, microsomes): 105%
- half-life at 24 h (in vivo): 1.31 h
- Papp_AB (Caco-2 cells [3]; Caco-2, apical to basolateral): 0.3 10^-6 cm/s
- Papp_BA (Caco-2 cells [3]; Caco-2, basolateral to apical): 10.7 10^-6 cm/s

SMILES: COc1cc(-c2cncc(-c3ccc(N4CCNCC4)cc3)c2C)cc(OC)c1C(N)=O [Compound 8c, 2,6-Dimethoxy-4-(4-methyl-5-(4-(piperazin-1-yl)phenyl)pyridin-3-yl)benzamide]
- Fold Selectivity (ALK5/ALK2) (ALK2/ACVR1): 9
- remaining at 1 h, 1 μM [1, 7]: 99.8%
- remaining at 1 h, 1 μM ([2]; pooled liver microsomes): 88.8%
- Papp A→B at 120 min, 5 μM ([4]; Caco-2, pH 7.4): 0.1 ×10⁻⁶ cm/s
- Papp B→A at 120 min, 5 μM ([4]; Caco-2, pH 7.4): 6.1 ×10⁻⁶ cm/s

SMILES: COc1ccc(-c2cncc(-c3ccc(N4CCNCC4)cc3)c2C)cc1C(N)=O [Compound 14a, 2-Methoxy-5-(4-methyl-5-(4-(piperazin-1-yl)phenyl)pyridin-3-yl)benzamide]
- IC50 (ALK2 (WT)): > 1 µM
- IC50 (ALK5): > 5 µM
- IC50 (DLA ALK5): > 5 µM
- Cell-based Fold Selectivity (ALK2): >7

SMILES: COc1cc(C(N)=O)cc(-c2cncc(-c3ccc(N4CCNCC4)cc3)c2C)c1 [Compound 14b, 3-Methoxy-5-(4-methyl-5-(4-(piperazin-1-yl)phenyl)pyridin-3-yl)benzamide]
- IC50 (ALK5): > 5 µM
- IC50 (DLA ALK5): > 5 µM
- Fold Selectivity (ALK5/ALK2) (ALK2/ACVR1): >49
- Cell-based Fold Selectivity (ALK2): >8

SMILES: Cc1c(-c2ccc(N3CCNCC3)cc2)cncc1-c1ccc2c(c1)CNC2=O [Compound 20a, 5-(4-Methyl-5-(4-(piperazin-1-yl)phenyl)pyridin-3-yl)isoindolin-1-one]
- IC50 (ALK5): > 5 µM
- Fold Selectivity (ALK5/ALK2) (ALK2/ACVR1): >7

SMILES: Cc1c(-c2ccc(C(N)=O)cc2)cncc1-c1ccc(N2CCNCC2)cc1 [Compound 20b, 4-(4-Methyl-5-(4-(piperazin-1-yl)phenyl)pyridin-3-yl)benzamide]
- IC50 (ALK5): > 5 µM
- IC50 (DLA ALK5): > 5 µM
- Fold Selectivity (ALK5/ALK2) (ALK2/ACVR1): >10
- fold decrease in inhibitory activity against ALK2 (ALK2/ACVR1): 28 fold
- Cell-based Fold Selectivity (ALK2): >1

SMILES: COCc1cc(-c2cncc(-c3ccc(N4CCNCC4)cc3)c2C)ccc1C(N)=O [Compound 20c, 2-(Methoxymethyl)-4-(4-methyl-5-(4-(piperazin-1-yl)phenyl)pyridin-3-yl)benzamide]
- IC50 (ALK5): > 5 µM
- IC50 (DLA ALK5): > 5 µM
- Fold Selectivity (ALK5/ALK2) (ALK2/ACVR1): >7
- Cell-based Fold Selectivity (ALK2): >1

SMILES: Cc1c(-c2ccc(N3CCNCC3)cc2)cncc1-c1ccc(C(N)=O)c(F)c1 [Compound 20d, 2-Fluoro-4-(4-methyl-5-(4-(piperazin-1-yl)phenyl)pyridin-3-yl)benzamide]
- IC50 (ALK5): > 5 µM
- IC50 (DLA ALK5): > 5 µM
- Fold Selectivity (ALK5/ALK2) (ALK2/ACVR1): >19
- Cell-based Fold Selectivity (ALK2): >4

SMILES: COc1cc(-c2cncc(-c3ccc(N4CCNCC4)cc3)c2C)cc(Cl)c1C(N)=O [Compound 20e, 2-Chloro-6-methoxy-4-(4-methyl-5-(4-(piperazin-1-yl)phenyl)pyridin-3-yl)benzamide]
- IC50 (DLA ALK5): > 5 µM
- IC50 (ALK2 (G328V)): < 0.002 µM
- Cell-based Fold Selectivity (ALK2): >54

SMILES: COc1cc(-c2cncc(-c3ccc(N4CCN(C)CC4)cc3)c2C)cc(OC)c1C(N)=O [Compound 26d, 2,6-Dimethoxy-4-(4-methyl-5-(4-(4-methylpiperazin-1-yl)phenyl)pyridin-3-yl)benzamide]
- IC50 (ALK2 (WT)): < 0.003 µM
- IC50 (ALK2 (G328V)): < 0.002 µM
- IC50 (ALK2 (R258G)): < 0.002 µM
- remaining at 1 h, 1 μM [1, 7]: 85.2%
- remaining at 1 h, 1 μM ([2]; pooled liver microsomes): 81.4%
- Papp A→B at 120 min, 5 μM ([4]; Caco-2, pH 7.4): 0.7 ×10⁻⁶ cm/s
- Papp B→A at 120 min, 5 μM ([4]; Caco-2, pH 7.4): 13.9 ×10⁻⁶ cm/s
- efflux ratio at 120 min, 5 μM ([4]; Caco-2, pH 7.4): > 10

SMILES: COc1cc(-c2cncc(-c3ccc(N4CCN(C(C)C)CC4)cc3)c2C)cc(OC)c1C(N)=O [Compound 26e, 4-(5-(4-(4-Isopropylpiperazin-1-yl)phenyl)-4-methylpyridin-3-yl)-2,6-dimethoxybenzamide]
- Fold Selectivity (ALK5/ALK2) (ALK2/ACVR1): 13
- remaining at 1 h, 1 μM [1, 7]: 99.5%
- remaining at 1 h, 1 μM ([2]; pooled liver microsomes): 98%
- Papp A→B at 120 min, 5 μM ([4]; Caco-2, pH 7.4): 0.9 ×10⁻⁶ cm/s
- Papp B→A at 120 min, 5 μM ([4]; Caco-2, pH 7.4): 14.4 ×10⁻⁶ cm/s
- efflux ratio at 120 min, 5 μM ([4]; Caco-2, pH 7.4, Efflux ratio, Caco-2, Papp (B-to-A)/Papp (A-to-B)): > 10

SMILES: COc1cc(-c2cncc(-c3ccc(N4C[C@@H](C)N(C)[C@@H](C)C4)cc3)c2C)cc(OC)c1C(N)=O [Compound 26f, 2,6-Dimethoxy-4-(4-methyl-5-(4-((3R,5S)-3,4,5-trimethylpiperazin-1-yl)phenyl)pyridin-3-yl)benzamide]
- IC50 (NanoBRET ALK2): 0.021 µM
- remaining at 1 h, 1 μM [1, 6]: 57.5%
- remaining at 1 h, 1 μM ([2]; human, microsomes): 55.7%
- Papp A→B (in vitro): 0.7 ×10⁻⁶ cm/s
- Papp B→A (in vitro): 12.6 ×10⁻⁶ cm/s

SMILES: COc1cc(-c2cncc(-c3ccc(N4CCNCC4)cc3)c2C)ccc1C(N)=O [Compound M4K2149]
- IC50 (hERG): >50 µM and >30 µM
- IC50 (hERG potassium channel): > 50 µM
- efflux ratio (Caco-2 cells [5]): 8.1
